Assay results taken from US11673889B2, “Substituted imidazo[4,5-c][1,8]naphthyridines as phosphodiesterase inhibitors” (Nanjing Zhengxiang Pharmaceuticals Co., Ltd., priority 2019, dated 2023).

Experiments:
Pharmacokinetics in mice = format: in vivo; conditions: mouse, plasma, male CD-1 mice, 1 mg/kg, iv
Method: A dosing solution of test sample was prepared at 1.0 mg/mL in 5% DMSO/40% PEG400/55% water and administered to male CD-1 mice (4-6 weeks old, 20-30 grams, 3 animals each group) via intravenous (IV) bolus at 1 mg/kg and by oral gavage (PO) at 5 mg/kg. Blood samples (˜0.03 mL each time point) were collected via the jugular vein into tubes containing sodium heparin as the anticoagulant at 0.033, 0.083, 0.25, 0.5, 1, 2, 4, 8 and 24 hours post dose for IV administration and 0.083, 0.25, 0.5, 1, 2, 4, 8 and 24 hours post dose for PO administration. The blood samples were then centrifuged for 5 minutes in a centrifuge refrigerated at 4° C. The resultant plasma samples were analyzed using LC/MS/MS to determine concentrations of test sample. Non-compartmental model with WinNonlin (Phoenix™, version 8.0) software was used to calculate pharmacokinetic (PK) parameters.

human soluble ENPP1 [1] = target: T1, human soluble ENPP1 (Homo sapiens, UniProt P22413); assay: ENPP1 activity assay using p-Nitrophenyl-5′-TMP as a substrate; format: biochemical
T1 construct: 20 ng of human soluble ENPP1
T1 sequence (P22413 103-925 limits assumed): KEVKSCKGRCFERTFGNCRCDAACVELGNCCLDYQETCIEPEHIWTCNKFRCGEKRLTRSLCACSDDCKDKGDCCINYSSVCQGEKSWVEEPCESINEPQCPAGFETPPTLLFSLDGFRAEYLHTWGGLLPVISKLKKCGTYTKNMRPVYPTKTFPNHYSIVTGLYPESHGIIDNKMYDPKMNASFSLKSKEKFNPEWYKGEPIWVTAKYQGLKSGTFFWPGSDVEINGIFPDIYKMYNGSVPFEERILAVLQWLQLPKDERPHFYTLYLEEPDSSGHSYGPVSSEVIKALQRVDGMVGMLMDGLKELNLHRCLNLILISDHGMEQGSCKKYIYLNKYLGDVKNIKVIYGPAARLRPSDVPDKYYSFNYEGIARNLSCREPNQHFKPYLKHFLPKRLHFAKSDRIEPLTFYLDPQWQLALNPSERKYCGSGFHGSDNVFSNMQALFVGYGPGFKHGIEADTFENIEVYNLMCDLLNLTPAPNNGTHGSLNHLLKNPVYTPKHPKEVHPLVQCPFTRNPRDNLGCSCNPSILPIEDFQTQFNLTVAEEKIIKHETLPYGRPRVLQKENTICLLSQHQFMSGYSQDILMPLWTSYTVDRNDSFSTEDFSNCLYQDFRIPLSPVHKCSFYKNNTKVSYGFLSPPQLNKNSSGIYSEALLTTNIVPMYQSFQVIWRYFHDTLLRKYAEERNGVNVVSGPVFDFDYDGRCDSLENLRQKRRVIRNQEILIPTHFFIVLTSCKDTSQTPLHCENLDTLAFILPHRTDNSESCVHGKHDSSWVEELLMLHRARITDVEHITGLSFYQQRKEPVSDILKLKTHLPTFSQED
Method in brief: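 Percent inhibition, set against uninhibited-enzyme and blank wells, was fitted to a four-parameter variable-slope model for IC50. Chromogenic read-out was p-nitrophenol released from TMP-pNP, added as a 2 mM […] solution for 1 h at RT. Before that, 20 ng soluble ENPP1 sat 30 min with compound.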

human soluble ENPP1 [2] = target: T1, human soluble ENPP1; assay: ENPP1 activity assay using p-Nitrophenyl-5′-AMP as a substrate; format: biochemical
Method in brief: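 Absorbance at 405 nm tracks p-nitrophenol from AMP-pNP hydrolysis after 1 h at room temperature, substrate added as 3 mM (2× final) following 30 min enzyme–compound preincubation. Enzyme: 35 ng human soluble ENPP1. IC50 fitted (variable-slope four-parameter) from percent inhibition normalized to max and blank.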

ENPP-1, MDA-MB-231 cells = target: T2, ENPP-1, MDA-MB-231 cells (Homo sapiens, UniProt P22413); assay: cell-based; conditions: for inhibition at 20 µM: MDA-MB-231, read-out: % Inhibition (at 20 μM)
T2 sequence (P22413 1-925): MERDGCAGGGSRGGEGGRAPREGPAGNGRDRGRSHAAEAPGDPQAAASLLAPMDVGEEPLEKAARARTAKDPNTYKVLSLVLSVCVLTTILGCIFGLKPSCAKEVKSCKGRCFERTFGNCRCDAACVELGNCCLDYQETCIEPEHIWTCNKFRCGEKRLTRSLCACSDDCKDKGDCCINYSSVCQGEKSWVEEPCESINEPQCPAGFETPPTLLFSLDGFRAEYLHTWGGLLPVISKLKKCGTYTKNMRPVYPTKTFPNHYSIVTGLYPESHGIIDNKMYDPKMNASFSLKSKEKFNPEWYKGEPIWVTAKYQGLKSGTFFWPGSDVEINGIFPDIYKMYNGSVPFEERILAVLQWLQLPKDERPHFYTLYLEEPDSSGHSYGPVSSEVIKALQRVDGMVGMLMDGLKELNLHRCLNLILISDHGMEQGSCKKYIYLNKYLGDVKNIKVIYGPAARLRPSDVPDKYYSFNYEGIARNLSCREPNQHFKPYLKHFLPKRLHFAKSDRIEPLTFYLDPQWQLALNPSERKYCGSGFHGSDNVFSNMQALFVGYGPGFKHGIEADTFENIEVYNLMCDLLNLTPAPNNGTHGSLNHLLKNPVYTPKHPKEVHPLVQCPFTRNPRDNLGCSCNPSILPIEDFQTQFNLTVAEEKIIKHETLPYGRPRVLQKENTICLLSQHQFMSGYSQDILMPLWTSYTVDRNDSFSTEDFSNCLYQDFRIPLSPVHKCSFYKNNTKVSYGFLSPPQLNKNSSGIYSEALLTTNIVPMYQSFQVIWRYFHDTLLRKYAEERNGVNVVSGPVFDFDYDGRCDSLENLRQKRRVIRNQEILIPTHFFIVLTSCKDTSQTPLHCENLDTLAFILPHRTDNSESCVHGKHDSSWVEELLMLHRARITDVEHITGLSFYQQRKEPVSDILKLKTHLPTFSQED

[3] = substrate TMP-pNP, 20 ng human soluble ENPP1, Tris buffer pH 9.5, read-out: TMP-pNP (IC50)

AUC (Pharmacokinetics in mice) [ng·h/mL] | clearance (Pharmacokinetics in mice) [mL/min/kg] | half-life (Pharmacokinetics in mice) [h] | Vd (Pharmacokinetics in mice; read-out: Vdss) [L/kg] | IC50 (human soluble ENPP1 [1]) [nM] | IC50 (human soluble ENPP1 [2]) [nM] | IC50 (ENPP-1, MDA-MB-231 cells) [nM] | inhibition at 20 µM (ENPP-1, MDA-MB-231 cells) [%] | IC50 (human soluble ENPP1 [1]; [3]) [nM] | SMILES
370 | 45 | 1.9 | 3.3 | 0.31 | 0.75 | – | – | – | COc1ccc2c(ncc3[nH]c(=O)n(Cc4ccc(S(N)(=O)=O)cc4)c32)n1 [Compound 38, 4-((7-methoxy-2-oxo-2,3-dihydro-1H-imidazo[4,5-c][1,8]naphthyridin-1-yl)methyl)benzenesulfonamide]
– | – | – | – | 7.2 | 21 | 2.7 | 82 | – | COc1ccc2c(ncc3nc(C)n(Cc4cc(F)c(P(=O)(O)O)cc4F)c32)n1 [Compound 125, (2,5-difluoro-4-((7-methoxy-2-methyl-1H-imidazo[4,5-c][1,8]naphthyridin-1-yl)methyl)phenyl)phosphonic acid]
– | – | – | – | 3.2 | 7.7 | 1200 | 83 | – | COC(=O)Cc1nc2cnc3nc(OC)ccc3c2n1Cc1ccc(S(N)(=O)=O)c(F)c1 [Compound 83, methyl 2-(1-(3-fluoro-4-sulfamoylbenzyl)-7-methoxy-1H-imidazo[4,5-c][1,8]naphthyridin-2-yl)acetate]
– | – | – | – | 19 | 56 | 9.6 | 86 | – | COc1ccc2c(ncc3[nH]c(=O)n(Cc4c(F)cc(P(=O)(O)O)cc4F)c32)n1 [Compound 124, (3,5-difluoro-4-((7-methoxy-2-oxo-2,3-dihydro-1H-imidazo[4,5-c][1,8]naphthyridin-1-yl)methyl)phenyl)phosphonic acid]
– | – | – | – | 9.3 | 29 | 4100 | 68 | – | COc1ccc2c(n1)nc(C)c1nc(CN(C)C)n(Cc3cc(F)c(S(N)(=O)=O)cc3F)c12 [Compound 92, 4-((2-((dimethylamino)methyl)-7-methoxy-4-methyl-1H-imidazo[4,5-c][1,8]naphthyridin-1-yl)methyl)-2,5-difluorobenzenesulfonamide]
– | – | – | – | 2 | 5.2 | 900 | 79 | – | COc1ccc2c(ncc3nc(C4CNC4)n(Cc4ccc(S(N)(=O)=O)c(F)c4)c32)n1 [Compound 85, 4-((2-(azetidin-3-yl)-7-methoxy-1H-imidazo[4,5-c][1,8]naphthyridin-1-yl)methyl)-2-fluorobenzenesulfonamide]
– | – | – | – | – | 4.6 | 1400 | 75 | 1.4 | COc1ccc2c(ncc3[nH]c(=O)n(Cc4ccc(S(N)(=O)=O)c(F)c4F)c32)n1 [Compound 95, 2,3-difluoro-4-((7-methoxy-2-oxo-2,3-dihydro-1H-imidazo[4,5-c][1,8]naphthyridin-1-yl)methyl)benzenesulfonamide]
– | – | – | – | 2.8 | 8.9 | 4700 | 68 | – | COc1ccc2c(ncc3ncn(Cc4ccc(S(N)(=O)=O)c(OC)c4)c32)n1 [Compound 64, 2-methoxy-4-((7-methoxy-1H-imidazo[4,5-c][1,8]naphthyridin-1-yl)methyl)benzenesulfonamide]
– | – | – | – | – | 26 | 6900 | 51 | 13 | COc1ccc2c(ncc3nc(C)n(Cc4ccc(S(=O)(=O)NC(C)=O)c(F)c4)c32)n1 [Compound 76, N-((2-fluoro-4-((7-methoxy-2-methyl-1H-imidazo[4,5-c][1,8]naphthyridin-1-yl)methyl)phenyl)sulfonyl)acetamide]
– | – | – | – | 8.6 | 15 | 4800 | 65 | – | COc1ccc2c(ncc3nc(C)n(Cc4ccc(S(=O)(=O)NC(C)=O)cn4)c32)n1 [Compound 77, N-((6-((7-methoxy-2-methyl-1H-imidazo[4,5-c][1,8]naphthyridin-1-yl)methyl)pyridin-3-yl)sulfonyl)acetamide]
– | – | – | – | 3.7 | 13 | 2200 | 74 | – | COCCc1nc2c(C)nc3nc(OC)ccc3c2n1Cc1cc(F)c(S(N)(=O)=O)cc1F [Compound 93, 2,5-difluoro-4-((7-methoxy-2-(2-methoxyethyl)-4-methyl-1H-imidazo[4,5-c][1,8]naphthyridin-1-yl)methyl)benzenesulfonamide]
– | – | – | – | 0.24 | 0.68 | 310 | 81 | – | COc1ccc2c(ncc3nc(C4CCOCC4)n(Cc4ccc(S(N)(=O)=O)cn4)c32)n1 [Compound 75, 6-((7-methoxy-2-(tetrahydro-2H-pyran-4-yl)-1H-imidazo[4,5-c][1,8]naphthyridin-1-yl)methyl)pyridine-3-sulfonamide]
– | – | – | – | 0.81 | 3.2 | 620 | 80 | – | COc1ccc2c(ncc3nc(C4CN(S(C)(=O)=O)C4)n(Cc4ccc(S(N)(=O)=O)c(F)c4)c32)n1 [Compound 86, 2-fluoro-4-((7-methoxy-2-(1-(methylsulfonyl)azetidin-3-yl)-1H-imidazo[4,5-c][1,8]naphthyridin-1-yl)methyl)benzenesulfonamide]
– | – | – | – | – | 2.6 | 150 | 86 | 0.6 | COc1ccc2c(ncc3[nH]c(=O)n(Cc4c(F)cc(C(=O)NO)cc4F)c32)n1 [Compound 110, 3,5-difluoro-N-hydroxy-4-((7-methoxy-2-oxo-2,3-dihydro-1H-imidazo[4,5-c][1,8]naphthyridin-1-yl)methyl)benzamide]

SMILES | AUC (Pharmacokinetics in mice) [ng·h/mL] | clearance (Pharmacokinetics in mice) [mL/min/kg] | half-life (Pharmacokinetics in mice) [h] | Vd (Pharmacokinetics in mice; read-out: Vdss) [L/kg] | IC50 (human soluble ENPP1 [1]) [nM] | IC50 (human soluble ENPP1 [2]) [nM] | IC50 (ENPP-1, MDA-MB-231 cells) [nM] | inhibition at 20 µM (ENPP-1, MDA-MB-231 cells) [%] | IC50 (human soluble ENPP1 [1]; [3]) [nM]
COc1ccc2c(ncc3[nH]c(=O)n(Cc4c(F)cc(S(=O)(=O)NC(C)=O)cc4F)c32)n1 [Compound 104, sodium acetyl((3,5-difluoro-4-((7-methoxy-2-oxo-2,3-dihydro-1H-imidazo[4,5-c][1,8]naphthyridin-1-yl)methyl)phenyl)sulfonyl)amide] | – | – | – | – | 8.9 | 11 | 3400 | 72 | –
